Test results from the NIST ThermoML archive (doi:10.1021/je060271a).
Where “and” joins values, the source holds several entries; their conditions need not be identical. Equal values may be shown once.

Settings: 303.15 K, Liquid, Vibrating tube method

CCCCCC(=O)OCC(COC(=O)CCCCC)(COC(=O)CCCCC)COC(=O)CCCCC [pentaerythritol tetrahexanoate]
Settings	mass density
228.5 kPa	988.5 kg/m3
228.8 kPa	988.5 kg/m3 and 988.4 kg/m3
229 kPa	988.6 kg/m3
229.5 kPa	988.6 kg/m3
229.7 kPa	988.5 kg/m3
230 kPa	988.5 kg/m3
230.2 kPa	988.5 kg/m3
230.4 kPa	988.5 kg/m3
230.8 kPa	988.5 kg/m3
230.9 kPa	988.5 kg/m3
231.1 kPa	988.3 kg/m3
231.4 kPa	988.5 kg/m3
231.8 kPa	988.4 kg/m3
233.2 kPa	988.5 kg/m3
233.5 kPa	988.4 kg/m3 and 988.5 kg/m3
242.4 kPa	988.5 kg/m3
244 kPa	988.5 kg/m3
244.1 kPa	988.6 kg/m3
244.5 kPa	988.5 kg/m3
247.3 kPa	988.5 kg/m3
247.4 kPa	988.4 kg/m3
247.8 kPa	988.5 kg/m3
248.1 kPa	988.4 kg/m3 and 988.6 kg/m3
248.3 kPa	988.5 kg/m3
249.7 kPa	988.5 kg/m3
250.2 kPa	988.5 kg/m3
250.4 kPa	988.4 kg/m3
250.6 kPa	988.5 kg/m3
250.7 kPa	988.6 kg/m3
262 kPa	988.6 kg/m3
283.9 kPa	988.4 kg/m3
284.4 kPa	988.6 kg/m3
284.8 kPa	988.6 kg/m3 and 988.5 kg/m3
287.9 kPa	988.5 kg/m3
288.2 kPa	988.6 kg/m3
288.7 kPa	988.6 kg/m3
289.1 kPa	988.6 kg/m3
289.6 kPa	988.6 kg/m3 and 988.5 kg/m3
293.3 kPa	988.6 kg/m3
294 kPa	988.7 kg/m3 and 988.6 kg/m3
294.3 kPa	988.6 kg/m3
294.8 kPa	988.5 kg/m3
295 kPa	988.5 kg/m3
295.2 kPa	988.4 kg/m3
295.9 kPa	988.6 kg/m3 and 988.5 kg/m3
296.4 kPa	988.6 kg/m3 and 988.5 kg/m3
296.9 kPa	988.6 kg/m3
297.3 kPa	988.4 kg/m3
297.6 kPa	988.5 kg/m3
305.4 kPa	988.5 kg/m3
305.8 kPa	988.6 kg/m3
305.9 kPa	988.6 kg/m3
312.9 kPa	988.4 kg/m3
313.2 kPa	988.6 kg/m3
314.1 kPa	988.6 kg/m3
314.5 kPa	988.5 kg/m3
314.8 kPa	988.5 kg/m3
315.2 kPa	988.5 kg/m3
315.8 kPa	988.6 kg/m3
324.2 kPa	988.6 kg/m3
324.7 kPa	988.5 kg/m3
329.4 kPa	988.6 kg/m3
329.9 kPa	988.6 kg/m3
330.4 kPa	988.7 kg/m3
330.8 kPa	988.6 kg/m3
331.1 kPa	988.6 kg/m3
331.5 kPa	988.5 kg/m3
331.6 kPa	988.6 kg/m3
332 kPa	988.6 kg/m3
332.7 kPa	988.6 kg/m3 and 988.7 kg/m3
334.1 kPa	988.7 kg/m3
334.4 kPa	988.5 kg/m3
334.6 kPa	988.5 kg/m3
335.1 kPa	988.6 kg/m3
335.6 kPa	988.6 kg/m3
335.7 kPa	988.6 kg/m3
336.2 kPa	988.6 kg/m3
336.5 kPa	988.6 kg/m3
337 kPa	988.6 kg/m3
337.6 kPa	988.6 kg/m3
337.9 kPa	988.6 kg/m3
338.1 kPa	988.6 kg/m3
338.3 kPa	988.5 kg/m3
339 kPa	988.5 kg/m3
340 kPa	988.6 kg/m3
341.5 kPa	988.5 kg/m3
342.1 kPa	988.6 kg/m3
342.8 kPa	988.7 kg/m3
343.1 kPa	988.5 kg/m3
343.3 kPa	988.6 kg/m3
343.8 kPa	988.5 kg/m3
389.7 kPa	988.6 kg/m3
391.9 kPa	988.5 kg/m3
393.8 kPa	988.6 kg/m3
396.4 kPa	988.7 kg/m3
398.9 kPa	988.6 kg/m3
401 kPa	988.6 kg/m3
403.1 kPa	988.6 kg/m3
405.6 kPa	988.6 kg/m3
407.9 kPa	988.5 kg/m3
410.3 kPa	988.7 kg/m3
413.3 kPa	988.6 kg/m3
415.4 kPa	988.6 kg/m3
418.3 kPa	988.7 kg/m3
420.6 kPa	988.6 kg/m3
423.2 kPa	988.6 kg/m3
426.5 kPa	988.7 kg/m3
428.6 kPa	988.7 kg/m3
431 kPa	988.6 kg/m3
434 kPa	988.6 kg/m3
436.4 kPa	988.7 kg/m3
439.4 kPa	988.6 kg/m3
442.5 kPa	988.7 kg/m3
445.1 kPa	988.7 kg/m3
448.1 kPa	988.6 kg/m3
451.4 kPa	988.6 kg/m3
579.1 kPa	988.9 kg/m3
583.8 kPa	988.9 kg/m3
588.3 kPa	988.7 kg/m3
593.5 kPa	988.7 kg/m3
598.6 kPa	988.6 kg/m3
604.3 kPa	988.7 kg/m3
609.3 kPa	988.6 kg/m3
614.4 kPa	988.7 kg/m3
620.8 kPa	988.8 kg/m3
625.5 kPa	988.7 kg/m3
631 kPa	988.8 kg/m3
635.9 kPa	988.8 kg/m3
642.5 kPa	988.8 kg/m3
648.3 kPa	988.8 kg/m3
653.8 kPa	988.8 kg/m3
660.6 kPa	988.8 kg/m3
666.7 kPa	988.8 kg/m3
672.6 kPa	988.8 kg/m3
679.9 kPa	988.7 kg/m3
686 kPa	988.7 kg/m3
838 kPa	988.9 kg/m3
872.9 kPa	989 kg/m3
882.8 kPa	988.9 kg/m3
890.8 kPa	988.9 kg/m3
899 kPa	988.9 kg/m3
907.3 kPa	989 kg/m3
916.8 kPa	989 kg/m3
925 kPa	988.8 kg/m3
933.2 kPa	989 kg/m3
